Legend:
[1] = test system: Streptococcus mutans (ATCC25175) biofilm; test: Bactericidal effect on cariogenic bacteria-formed biofilms, surviving cells in the biofilm; format: cell-based; conditions: Example 3, 37°C, 20 min
Procedure: Either water containing oxygen-filled ultrafine bubbles prepared as described above or purified water was used to dilute povidone iodine to condition the same to 1.0 mg/mL and 10 mg/mL.
Streptococcus mutans (ATCC25175) was grown in a Tryptic soy Broth supplemented with 0.5% yeast extract (the resulting medium is hereinafter referred to as TSBY medium) at 37° C. until the OD660 was between 0.6 and 0.8 (10^8 cells/mL); the product was used as a test bacterial liquid.
A TSBY medium (plus 1% sucrose) placed in a test tube in a volume of 4950 μL was inoculated with 50 μL of the test bacterial liquid and was cultured at 37° C. for 18 hours to form a biofilm.
From the test tube in which the biofilm was formed, the culture broth was removed by means of an aspirator and the biofilm was washed with 5 mL of an added PBS. After removing the PBS, 5 mL of the test liquid was treated for reaction as it was shaken with a shaking machine (37° C.×20 min). After the 20-min reaction, 5 mL of 0.4% (w/v) sodium thiosulfate in solution was added into the test tube so as to inactivate the bactericidal agent. Using a sonicator, the biofilm was detached from the inner surfaces of the test tube and dispersed with a vortex mixer thereby prepare a sample liquid for cell count; the number of surviving cells in the biofilm was then counted.
The sample liquids for cell count were diluted with a buffer solution; after culture in an MS agar medium (37° C.×36-48 hours), the number of colonies formed was counted to determine the number of surviving cells in the biofilms.
To obtain those results, the test was replicated in 5 runs (n=5).

[2] = test system: Pseudomonas aeruginosa NBRC13275; test: Bactericidal test on carriers with adhered Pseudomonas aeruginosa and dried organic substance (AOAC Official Method 964.02), surviving cell count; Examples 1, 4, 5; format: cell-based
Procedure: The test was conducted in accordance with AOAC Official Method 964.02 Testing Disinfectants against Pseudomonas aeruginosa.
The water prepared as described above to contain oxygen-filled ultrafine bubbles or the purified water of the Japanese Pharmacopoeia was used to dilute povidone iodine such that it was conditioned to 100 mg/L.
A cryopreserved bacterial strain (Pseudomonas aeruginosa NBRC13275) was grown in a tryptic soy agar (Difco; hereinafter referred to as TSA medium) at 36±1° C. for 18-24 hours. The grown cells were transplanted into a tryptic soy broth (Difco; hereinafter referred to as TSB medium) where they were cultured at 36±1° C. for 18-24 hours. The liquids of the thus cultured cells were conditioned with a TSB medium to an approximate value of 10^6 CFU/mL and the resulting liquids were used as test bacterial liquids.
A sterile bioassay cup (stainless steel Penicillin Cup 441-01 made by Sogo Rikagagu glass; hereinafter designated as a carrier) was placed in a 100-mL beaker, into which test bacterial liquids were poured in such amounts that the carrier would be completely immersed (ca. 30-40 mL). After allowing the beaker to stand for 10-15 minutes, the carrier was transferred onto a Petri dish with sterile filter paper spread on the bottom and by allowing the Petri dish to stand at 36±1° C. for 40±2 minutes, the bacterial cells and the organic substance derived from the mediums were dried and adhered to the carrier.
The test liquids preliminarily held at 25±2° C. were each dispensed in 10 mL into centrifugal tubes having a capacity of 50 mL; using a hook of platinum wire, the carriers to which the test bacterium adhered were put into the centrifugal tubes, one for each, and allowed to act at 25±2° C. for 20 minutes. Thereafter, the carriers were transferred into centrifugal tubes containing 10 mL of an inactivator SCDLP medium (Eiken Chemical Co., Ltd.), one for each, so as to inactivate the bactericidal component in the test liquid adhering to the carrier. The carriers were then treated with a sonicator at 20±2° C. for 5 minutes to wash off the test bacterium; the test liquids were agitated for an additional minute with a vortex mixer to prepare sample liquids for cell count and the number of surviving cells was counted. A control was prepared by the same procedure as described above, except that the test liquids were replaced by sterile physiological saline.
The sample liquids for cell count (stock liquids) were serially diluted 10-fold with sterile physiological saline; the sample liquids or the series of dilutions, each weighing a volume of 1 mL, were transferred aseptically into Petri dishes and, after mixing with 20 mL of a TSA medium, they were solidified and cultured at 36±1° C. for 48 hours. Thereafter, colonies growing on the medium were counted to determine the number of surviving cells per carrier (lower limit for quantification: 10 CFU/carrier).
To obtain those results, the test was replicated in five runs (n=5) and after eliminating minimum and maximum values, an averaged cell count for n=3 was indicated as a logarithmic value.
An experiment was conducted by the same method as in Example 1, except for the following points: water containing oxygen-filled ultrafine bubbles prepared as described above or purified water was used to dilute povidone iodine such that it was conditioned to 100 mg/L; in addition, the most frequent particle density of the water containing ultrafine bubbles were adjusted to orders of 10^4, 10^5, 10^6, and 10^8 per mL.
An experiment was conducted by the same method as in Example 1, except that water containing atmospheric air- or C3F8-filled ultrafine bubbles prepared as described above or purified water was used to dilute povidone iodine such that it was conditioned to 100 mg/L.

[3] = povidone iodine concentration 1 (table head mg/L; text 1.0 mg/mL) conditioned with water (purified water)
[4] = povidone iodine concentration 1 (table head mg/L; text 1.0 mg/mL) conditioned with water containing oxygen-filled ultrafine bubbles (100 nm; 2.0x10^7, total 1.6x10^9 particles/ml)
[5] = povidone iodine concentration 10 (table head mg/L; text 10 mg/mL) conditioned with water (purified water)
[6] = povidone iodine concentration 10 (table head mg/L; text 10 mg/mL) conditioned with water containing oxygen-filled ultrafine bubbles (100 nm; 2.0x10^7, total 1.6x10^9 particles/ml)
[7] = Example 1, povidone iodine 100 mg/L conditioned with water (purified water), 25°C, 20 min
[8] = Example 1, povidone iodine 100 mg/L conditioned with water containing oxygen-filled ultrafine bubbles (91 nm; 3.1x10^8, total 2.3x10^10 particles/ml), 25°C, 20 min
[9] = Example 4, povidone iodine 100 mg/L conditioned with water (purified water)
[10] = Example 4, povidone iodine 100 mg/L, water containing oxygen-filled ultrafine bubbles, 81 nm, most frequent particle density 7.2 × 10^4, total 4.2 × 10^6 particles/ml
[11] = Example 4, povidone iodine 100 mg/L, water containing oxygen-filled ultrafine bubbles, 81 nm, most frequent particle density 7.2 × 10^5, total 4.2 × 10^7 particles/ml
[12] = Example 4, povidone iodine 100 mg/L, water containing oxygen-filled ultrafine bubbles, 81 nm, most frequent particle density 7.2 × 10^6, total 4.2 × 10^8 particles/ml
[13] = Example 4, povidone iodine 100 mg/L, water containing oxygen-filled ultrafine bubbles, 81 nm, most frequent particle density 7.2 × 10^8, total 4.2 × 10^10 particles/ml
[14] = Example 5, povidone iodine 100 mg/L conditioned with water (purified water)
[15] = Example 5, povidone iodine 100 mg/L, water containing C3F8-filled ultrafine bubbles (76 nm; 2.7x10^8, total 1.3x10^10 particles/ml)
[16] = Example 5, povidone iodine 100 mg/L, water containing atmospheric air-filled ultrafine bubbles (75 nm; 5.7x10^8, total 4.6x10^10 particles/ml)

povidone iodine
Cell count CFU average [1, 3]: 616.6 CFU | Cell count CFU n1 [1, 3]: 612 CFU | Cell count CFU n2 [1, 3]: 439 CFU | Cell count CFU n3 [1, 3]: 1050 CFU | Cell count CFU n4 [1, 3]: 386 CFU | Cell count CFU n5 [1, 3]: 596 CFU | Cell count CFU average [1, 4]: 149.2 CFU | Cell count CFU n1 [1, 4]: 250 CFU | Cell count CFU n2 [1, 4]: 35 CFU | Cell count CFU n3 [1, 4]: 178 CFU | Cell count CFU n4 [1, 4]: 150 CFU | Cell count CFU n5 [1, 4]: 133 CFU | Cell count CFU average [1, 5]: 9.2 CFU | Cell count CFU n1 [1, 5]: 9 CFU | Cell count CFU n2 [1, 5]: 22 CFU | Cell count CFU n3 [1, 5]: 13 CFU | Cell count CFU n4 [1, 5]: 0 CFU | Cell count CFU n5 [1, 5]: 2 CFU | Cell count CFU average [1, 6]: 0 CFU | Cell count CFU n1 [1, 6]: 0 CFU | Cell count CFU n2 [1, 6]: 0 CFU | Cell count CFU n3 [1, 6]: 0 CFU | Cell count CFU n4 [1, 6]: 0 CFU | Cell count CFU n5 [1, 6]: 0 CFU | Cell count CFU/carrier average [2, 7]: 8000 CFU/carrier | Cell count CFU/carrier n1 [2, 7]: 23000 CFU/carrier | Cell count CFU/carrier n2 [2, 7]: 19000 CFU/carrier | Cell count CFU/carrier n3 [2, 7]: 26000 CFU/carrier | log value (averaged surviving cell count as logarithmic value) [2, 7]: 3.9 | Cell count CFU/carrier average [2, 8]: 23 CFU/carrier | Cell count CFU/carrier n1 [2, 8]: 10 CFU/carrier | Cell count CFU/carrier n2 [2, 8]: 10 CFU/carrier | Cell count CFU/carrier n3 [2, 8]: 50 CFU/carrier | log value (averaged surviving cell count as logarithmic value) [2, 8]: 1.4 | Cell count CFU/carrier average [2, 9]: 44000 CFU/carrier | Cell count CFU/carrier n1 [2, 9]: 46000 CFU/carrier | Cell count CFU/carrier n2 [2, 9]: 47000 CFU/carrier | Cell count CFU/carrier n3 [2, 9]: 39000 CFU/carrier | Log value [2, 9]: 4.6 | Cell count CFU/carrier average [2, 10]: 5300 CFU/carrier | Cell count CFU/carrier n1 [2, 10]: 5900 CFU/carrier | Cell count CFU/carrier n2 [2, 10]: 2200 CFU/carrier | Cell count CFU/carrier n3 [2, 10]: 7700 CFU/carrier | Log value [2, 10]: 3.7 | Observed bactericidal efficacy [2, 10]: Δ | Cell count CFU/carrier average [2, 11]: <10 CFU/carrier | Cell count CFU/carrier n1 [2, 11]: 4200 CFU/carrier | Cell count CFU/carrier n2 [2, 11]: <10 CFU/carrier | Cell count CFU/carrier n3 [2, 11]: <10 CFU/carrier | Log value [2, 11]: 3.1 | Observed bactericidal efficacy [2, 11]: ○ | Cell count CFU/carrier average [2, 12]: <10 CFU/carrier | Cell count CFU/carrier n1 [2, 12]: <10 CFU/carrier | Cell count CFU/carrier n2 [2, 12]: <10 CFU/carrier | Cell count CFU/carrier n3 [2, 12]: <10 CFU/carrier | Log value [2, 12]: <1.0 | Observed bactericidal efficacy [2, 12]: ○ | Cell count CFU/carrier average [2, 13]: <10 CFU/carrier | Cell count CFU/carrier n1 [2, 13]: <10 CFU/carrier | Cell count CFU/carrier n2 [2, 13]: <10 CFU/carrier | Cell count CFU/carrier n3 [2, 13]: <10 CFU/carrier | Log value [2, 13]: <1.0 | Observed bactericidal efficacy [2, 13]: ○ | Cell count CFU/carrier average [2, 14]: 4500 CFU/carrier | Cell count CFU/carrier n1 [2, 14]: 3200 CFU/carrier | Cell count CFU/carrier n2 [2, 14]: 1800 CFU/carrier | Cell count CFU/carrier n3 [2, 14]: 8600 CFU/carrier | Log value [2, 14]: 3.7 | Cell count CFU/carrier average [2, 15]: <10 CFU/carrier | Cell count CFU/carrier n1 [2, 15]: <10 CFU/carrier | Cell count CFU/carrier n2 [2, 15]: <10 CFU/carrier | Cell count CFU/carrier n3 [2, 15]: <10 CFU/carrier | Log value [2, 15]: 1.0 | Cell count CFU/carrier average [2, 16]: 32 CFU/carrier | Cell count CFU/carrier n1 [2, 16]: 10 CFU/carrier | Cell count CFU/carrier n2 [2, 16]: 75 CFU/carrier | Cell count CFU/carrier n3 [2, 16]: <10 CFU/carrier | Log value [2, 16]: 1.5

Source: patent US9220799B2, “Bactericidal agent composition” (SUNSTAR ENGINEERING INC., priority 2012, dated 2015)
